# Source: ChEMBL document CHEMBL1201862, “PubChem BioAssay data set” (2004)
# The source made the active and inactive calls.
# Assays:
# [1] = HEp-2 cell cytotoxicity, dose response, cytotoxicity control for RSV inhibitor project, HTS (AID 2410); assay type: functional; details: human respiratory syncytial virus
# [2] = inhibitors of Bluetongue virus cytopathic effect, confirmation, arbovirus, BSR cells (AID 1250); assay type: functional;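 also: protection from viral cytopathic effect measured as cell viability by ATP luminescence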
# [3] = target: T1, Sphingosine 1-phosphate receptor 4 (Homo sapiens, UniProt O95977); experiment: Fluorescence dose response cell-based high throughput screening assay for antagonists of the Sphingosine 1-Phosphate Receptor 4 (S1P4). [Related pubchem assays: 1524 (Confirmation in triplicates.), 1510 (Primary screen.)]; assay type: functional
# T1 sequence (O95977 whole entry): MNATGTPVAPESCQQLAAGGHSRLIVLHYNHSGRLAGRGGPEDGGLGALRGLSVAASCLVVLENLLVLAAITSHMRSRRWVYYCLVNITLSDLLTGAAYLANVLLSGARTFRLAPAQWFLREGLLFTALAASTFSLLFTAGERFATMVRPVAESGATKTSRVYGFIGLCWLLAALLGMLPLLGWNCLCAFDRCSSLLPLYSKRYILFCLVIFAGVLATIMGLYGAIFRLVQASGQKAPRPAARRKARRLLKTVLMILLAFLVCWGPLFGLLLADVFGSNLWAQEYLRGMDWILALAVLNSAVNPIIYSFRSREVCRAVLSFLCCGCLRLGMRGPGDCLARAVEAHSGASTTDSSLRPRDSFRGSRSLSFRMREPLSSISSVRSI
# [4] = target: Sphingosine 1-phosphate receptor 1 (Homo sapiens, UniProt P21453); assay type: functional;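 also: Tango beta-arrestin reporter U2OS cells stimulated with S1P near its EC80; inhibitor potency meaning antagonism of receptor activation by the natural agonist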
# [5] = target: T1, Sphingosine 1-phosphate receptor 4; experiment: Late stage fluorescence dose response cell-based screening assay for antagonists of the Sphingosine 1-Phosphate Receptor 4 (S1P4). [Related pubchem assays: 1524 (Confirmation screen (S1P4 antagonists).), 1510 (Primary screen (S1P4 antagonists).), 1853 (Summary AID (S1P4 antagonists).), 1692 (Dose response screen (S1P4 antagonists).)]; assay type: functional
# INS1 = experiment: beta cell apoptosis inhibitors, cytokine rescue, dose response, luminescence, retest (AID 449756); assay type: functional, cell-based; details: Rattus norvegicus;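 also: cell death triggered by IL-1 beta plus TNF-alpha plus IFN-gamma mixture; protective hits raise ATP signal compared with cytokine alone wells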
# Caspase-3 = target: T2, Caspase-3 (Homo sapiens, UniProt P42574); assay type: functional;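 also: Dose-response selectivity test against caspase-3 for candidate inhibitors of sentrin-specific proteases (SENPs)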
# T2 sequence (P42574 whole entry): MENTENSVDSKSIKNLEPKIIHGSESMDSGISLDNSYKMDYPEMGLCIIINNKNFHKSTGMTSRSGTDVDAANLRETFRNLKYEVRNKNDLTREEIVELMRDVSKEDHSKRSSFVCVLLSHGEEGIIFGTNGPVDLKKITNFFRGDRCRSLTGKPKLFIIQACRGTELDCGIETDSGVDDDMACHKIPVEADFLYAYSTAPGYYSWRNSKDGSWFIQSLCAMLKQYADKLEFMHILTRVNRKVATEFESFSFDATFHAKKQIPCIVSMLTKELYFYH
# HT-1080 = experiment: cytotoxicity in HT1080 fibrosarcoma cells, cell-based, fluorescence readout (AID 620); assay type: functional; details: Homo sapiens
# [6] = target: T3, Oxysterols receptor LXR-beta (Homo sapiens, UniProt P55055); assay type: functional, cell-based;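 also: Cell-based luminescence dose-response assay of agonist activity at LXR, run as a confirmatory counterscreen to a daf-12 agonist screen; HEK293 cells with Gal4-LXR fusion and GAL4-driven luciferase reporter; agonist potency from rising luciferase signal of a Gal4-LXR reporter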
# T3 sequence (P55055 whole entry): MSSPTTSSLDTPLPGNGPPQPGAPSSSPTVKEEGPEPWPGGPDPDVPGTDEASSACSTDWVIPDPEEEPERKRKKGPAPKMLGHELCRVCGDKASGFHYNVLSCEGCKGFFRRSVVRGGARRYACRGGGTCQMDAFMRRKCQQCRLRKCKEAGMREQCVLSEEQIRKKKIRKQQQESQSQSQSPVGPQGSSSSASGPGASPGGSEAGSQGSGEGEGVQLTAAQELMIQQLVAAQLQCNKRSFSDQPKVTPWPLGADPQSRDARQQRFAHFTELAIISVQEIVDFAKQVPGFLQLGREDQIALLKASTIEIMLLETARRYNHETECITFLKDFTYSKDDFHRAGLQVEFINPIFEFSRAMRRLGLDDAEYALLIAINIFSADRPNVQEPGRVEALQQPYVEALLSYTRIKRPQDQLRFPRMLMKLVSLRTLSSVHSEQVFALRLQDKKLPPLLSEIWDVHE
# [7] = target: T4, Sentrin-specific protease 8 (Homo sapiens, UniProt Q96LD8); assay type: functional;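 also: luminescence read-out of SENP8 inhibition, dose-response confirmation following an ultra-high-throughput screen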
# T4 sequence (Q96LD8 whole entry): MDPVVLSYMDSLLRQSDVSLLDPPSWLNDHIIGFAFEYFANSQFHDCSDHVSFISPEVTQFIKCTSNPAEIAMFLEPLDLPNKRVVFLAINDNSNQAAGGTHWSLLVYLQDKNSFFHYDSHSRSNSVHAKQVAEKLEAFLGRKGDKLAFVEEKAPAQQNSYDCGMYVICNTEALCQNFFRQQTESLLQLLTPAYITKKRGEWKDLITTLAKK
# [8] = target: T5, Sentrin-specific protease 7 (Homo sapiens, UniProt Q9BQF6); assay type: functional;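 also: Luminescence-based dose-response confirmation of ultra-high-throughput screening hits, measuring inhibition of SENP7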
# T5 sequence (Q9BQF6 whole entry): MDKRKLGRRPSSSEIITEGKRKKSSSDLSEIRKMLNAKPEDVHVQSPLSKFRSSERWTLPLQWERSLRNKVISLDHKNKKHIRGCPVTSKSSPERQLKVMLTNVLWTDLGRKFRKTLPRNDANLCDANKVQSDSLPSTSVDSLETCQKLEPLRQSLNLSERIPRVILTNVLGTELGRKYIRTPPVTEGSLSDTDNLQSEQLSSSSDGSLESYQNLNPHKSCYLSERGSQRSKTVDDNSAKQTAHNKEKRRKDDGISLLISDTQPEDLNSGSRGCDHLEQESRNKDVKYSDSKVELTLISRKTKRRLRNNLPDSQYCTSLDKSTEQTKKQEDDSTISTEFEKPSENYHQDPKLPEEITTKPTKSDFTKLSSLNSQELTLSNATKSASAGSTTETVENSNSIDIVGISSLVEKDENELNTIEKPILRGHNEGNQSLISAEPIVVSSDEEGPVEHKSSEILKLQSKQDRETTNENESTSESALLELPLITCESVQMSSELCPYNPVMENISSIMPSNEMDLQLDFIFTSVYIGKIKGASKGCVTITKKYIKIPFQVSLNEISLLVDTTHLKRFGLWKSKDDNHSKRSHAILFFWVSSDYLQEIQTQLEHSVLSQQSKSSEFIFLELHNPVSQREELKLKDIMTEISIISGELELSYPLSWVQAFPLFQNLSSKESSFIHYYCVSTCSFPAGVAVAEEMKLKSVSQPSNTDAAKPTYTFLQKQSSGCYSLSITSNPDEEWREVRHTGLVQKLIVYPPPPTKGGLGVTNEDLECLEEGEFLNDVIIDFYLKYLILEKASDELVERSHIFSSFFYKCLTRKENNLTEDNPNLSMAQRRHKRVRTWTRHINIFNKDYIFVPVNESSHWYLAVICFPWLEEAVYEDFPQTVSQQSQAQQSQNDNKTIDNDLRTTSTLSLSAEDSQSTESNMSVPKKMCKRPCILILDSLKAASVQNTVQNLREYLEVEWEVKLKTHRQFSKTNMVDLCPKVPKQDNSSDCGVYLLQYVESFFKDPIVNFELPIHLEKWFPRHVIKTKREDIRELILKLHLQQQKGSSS
# [9] = target: T6, Sentrin-specific protease 6 (Homo sapiens, UniProt Q9GZR1); assay type: functional;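 also: Luminescence-based dose-response confirmatory assay of SENP6 inhibition, following up an ultra-high-throughput screen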
# T6 sequence (Q9GZR1 whole entry): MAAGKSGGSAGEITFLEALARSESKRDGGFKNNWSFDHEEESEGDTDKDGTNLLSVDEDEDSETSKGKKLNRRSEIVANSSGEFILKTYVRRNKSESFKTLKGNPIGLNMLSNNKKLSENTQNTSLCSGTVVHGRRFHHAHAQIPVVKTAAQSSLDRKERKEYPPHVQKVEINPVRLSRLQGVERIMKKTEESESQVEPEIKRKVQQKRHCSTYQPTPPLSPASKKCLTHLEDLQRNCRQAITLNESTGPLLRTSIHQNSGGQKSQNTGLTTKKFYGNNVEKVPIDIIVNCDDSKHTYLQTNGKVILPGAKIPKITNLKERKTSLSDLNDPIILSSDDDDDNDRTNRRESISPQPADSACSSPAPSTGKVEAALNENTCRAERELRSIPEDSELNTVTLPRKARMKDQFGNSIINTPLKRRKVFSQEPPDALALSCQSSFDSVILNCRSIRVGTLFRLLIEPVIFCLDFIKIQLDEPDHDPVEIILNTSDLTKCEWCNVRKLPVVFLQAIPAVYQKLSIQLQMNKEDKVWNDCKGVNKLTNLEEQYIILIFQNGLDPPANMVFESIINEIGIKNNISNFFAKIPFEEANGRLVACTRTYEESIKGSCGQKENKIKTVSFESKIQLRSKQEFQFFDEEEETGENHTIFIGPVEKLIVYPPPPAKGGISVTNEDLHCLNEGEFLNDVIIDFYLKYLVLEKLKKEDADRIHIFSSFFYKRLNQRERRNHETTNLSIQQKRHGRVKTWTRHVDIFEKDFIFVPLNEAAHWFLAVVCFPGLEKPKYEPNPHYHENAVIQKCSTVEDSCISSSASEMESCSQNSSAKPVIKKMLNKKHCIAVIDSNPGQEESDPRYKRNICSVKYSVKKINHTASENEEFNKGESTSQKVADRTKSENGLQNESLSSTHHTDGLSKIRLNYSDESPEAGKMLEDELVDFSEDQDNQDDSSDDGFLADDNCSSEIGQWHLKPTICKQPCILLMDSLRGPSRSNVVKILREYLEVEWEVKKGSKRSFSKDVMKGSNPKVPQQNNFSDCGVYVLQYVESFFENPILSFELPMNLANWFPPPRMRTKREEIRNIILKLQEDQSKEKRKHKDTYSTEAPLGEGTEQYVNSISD
# [10] = target: Luciferin 4-monooxygenase (Photinus pyralis, UniProt P08659); experiment: Counter Screen for Luciferase-based Assay Positives. [Related pubchem assays: 620, 618, 411 ]
# Luciferin 4-monooxygenase, sequence (P08659 whole entry): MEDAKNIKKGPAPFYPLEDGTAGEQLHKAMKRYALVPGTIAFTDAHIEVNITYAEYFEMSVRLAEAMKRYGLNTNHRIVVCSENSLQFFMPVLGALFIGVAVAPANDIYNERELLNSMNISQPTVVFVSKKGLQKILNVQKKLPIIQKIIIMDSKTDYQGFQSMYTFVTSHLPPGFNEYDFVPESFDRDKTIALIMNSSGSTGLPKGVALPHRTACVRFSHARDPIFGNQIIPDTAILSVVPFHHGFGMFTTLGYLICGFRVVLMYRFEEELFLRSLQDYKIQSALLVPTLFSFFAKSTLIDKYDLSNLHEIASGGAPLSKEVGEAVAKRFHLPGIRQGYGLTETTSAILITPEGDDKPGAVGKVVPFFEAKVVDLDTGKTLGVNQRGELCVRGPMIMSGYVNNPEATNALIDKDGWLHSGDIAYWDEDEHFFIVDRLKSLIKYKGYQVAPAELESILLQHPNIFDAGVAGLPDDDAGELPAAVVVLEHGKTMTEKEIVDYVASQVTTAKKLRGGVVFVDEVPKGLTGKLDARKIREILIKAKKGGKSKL
# Sphingosine 1-phosphate receptor 1, sequence (P21453 whole entry): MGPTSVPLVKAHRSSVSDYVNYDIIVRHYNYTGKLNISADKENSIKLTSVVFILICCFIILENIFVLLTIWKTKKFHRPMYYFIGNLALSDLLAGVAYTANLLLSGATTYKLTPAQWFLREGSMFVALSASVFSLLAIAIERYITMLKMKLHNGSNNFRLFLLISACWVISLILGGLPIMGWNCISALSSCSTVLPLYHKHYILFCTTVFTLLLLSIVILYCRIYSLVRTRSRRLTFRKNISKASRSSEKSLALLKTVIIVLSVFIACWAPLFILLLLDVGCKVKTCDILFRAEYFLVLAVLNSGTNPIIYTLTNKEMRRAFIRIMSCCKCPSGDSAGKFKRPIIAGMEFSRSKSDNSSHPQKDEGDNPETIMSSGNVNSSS
smiles,measurement,setting,value
COc1ccc(-c2cc(-c3ccc(OC)c(OC)c3)[nH]n2)c(O)c1,CC50,[1],46.3 µM (active)
same,IC50,[2],45.6 µM (active)
CCOC(=O)C(=Cc1ccc(Br)cc1)C(=O)OCC,IC50,[3],0.419 µM (active)
same,IC50,[4],9.77 µM (active)
same,IC50,[5],0.887 µM (active)
same,AC50,INS1,25 µM (active)
COc1cc([N+](=O)[O-])ccc1N/C=C/C(=O)c1cccs1,IC50,Caspase-3,1.53 µM (active)
same,EC50,HT-1080,> 50 µM (not active)
same,EC50,[6],> 67.5 µM (inactive)
same,IC50,[7],2.62 µM (active)
same,IC50,[8],0.863 µM (active)
same,IC50,[9],1.15 µM (active)
same,EC50,[10],4.17 µM (active)
same,EC50,cells,> 67.5 µM (inactive)
